Experimental data reported in patent EP0059057A1 (priority 1981, dated 1982).
Where two headings read alike, the source gives them in different places.

Experiments:
[1] = test system: culture filtrate prepared from an enteropathogenic strain of E. coli; details: piglets; for Mean Scour Score ± SEM drug treated: score 0 - 3
[2] = test system: culture filtrate prepared from an enteropathogenic strain of E. coli; type: in vivo; details: infant mice
[3] = test system: Heat stable E. coli enterotoxin from E. coli strain pl6; details: 100 µg/kg
[4] = 1 mg/kg po., duration of test 6 h
[5] = 1 mg/kg po., duration of test 12 h
[6] = 10 mg/kg po., duration of test 12 h
[7] = 2 x 5 mg/kg po., duration of test 12 h
[8] = 1 mg/kg p.o., 45 mins prior to challenge
[9] = 5 mg/kg p.o., 45 mins prior to challenge
[10] = 10 mg/kg p.o., 45 mins prior to challenge
[11] = 20 mg/kg p.o., 45 mins prior to challenge
[12] = 100 mg/kg p.o., 45 mins prior to challenge

CNCC(O)c1ccc(O)c(O)c1.O=C(O)C(O)C(O)C(=O)O (stereo not shown) [Adrenaline Bitartrate]
% Inhibition of Scour [1, 4]: 11% | Mean Scour Score ± SEM drug treated [1, 4]: 2.0 ± 0.2 | % Inhibition of Scour [1, 5]: 16% | Mean Scour Score ± SEM drug treated [1, 5]: 1.8 ± 0.1 | % Inhibition of Scour [1, 6]: 98% | Mean Scour Score ± SEM drug treated [1, 6]: 0 ± 0 | % Inhibition of Scour [1, 7]: 96% | Mean Scour Score ± SEM drug treated [1, 7]: 0.1 ± 0.1 | % Inhibition [2, 8]: 37% | % Inhibition [2, 9]: 36% | % Inhibition [2, 10]: 58% | % Inhibition [2, 11]: 70% | % Inhibition [2, 12]: 96%

CNCC(O)c1ccc(O)c(O)c1 (stereo not shown) [Adrenaline]
Secretion/(ml/30 min) (mean ± SEM [n=10) ([3]; time 0-30 min after toxin (before drug; drug administered 30 min after toxin)): 31 ± 3 ml/30 min | Secretion/(ml/30 min) (mean ± SEM [n=10) ([3]; time 30-60 min after toxin): 10 ± 1 ml/30 min | Secretion/(ml/30 min) (mean ± SEM [n=10) ([3]; time 60-90 min after toxin): 8 ± 2 ml/30 min | Secretion/(ml/30 min) (mean ± SEM [n=10) ([3]; time 90-120 min after toxin): 6 ± 2 ml/30 min | Secretion/(ml/30 min) (mean ± SEM [n=10) ([3]; time 120-150 min after toxin): 8 ± 3 ml/30 min | Secretion/(ml/30 min) (mean ± SEM [n=10) ([3]; time 150-180 min after toxin): 7 ± 2 ml/30 min | Secretion/(ml/30 min) (mean ± SEM [n=10) ([3]; time -30-0 min after toxin (before toxin and drug)): 3 ± 1 ml/30 min | % Inhibition ([2]; 0.5 mg/kg p.o., 45 mins prior to challenge): 8% | % Inhibition [2, 8]: 18% | % Inhibition [2, 9]: 54% | % Inhibition [2, 10]: 54% | % Inhibition [2, 11]: 69% | % Inhibition [2, 12]: 101%

C[C@H](N)[C@H](O)c1cccc(O)c1 [Metoraminol]
% Inhibition ([2]; 200 mg/kg p.o., 45 mins prior to challenge): 45%

NC[C@H](O)c1ccc(O)c(O)c1 [Noradrenaline]
% Inhibition ([2]; 10 mg/kg p.o., in 6mM ascorbate): 40%
